Legend:
Gram negative bacteria = experiment: antibacterial effect against Gram negative bacteria; assay type: cell-based
Source text: (§1) The antimicrobial spectrum (minimum inhibitory concentration, MIC) of G-367-1 by agar dilution method is as follows: […]

[1] = tested on: Staphylococcus aureus 0119; experiment: antimicrobial spectrum, MIC by agar dilution method; assay type: cell-based; details: read-out: minimum inhibitory concentration, MIC
Source text: as §1

[2] = tested on: Pseudomonas maltophilia 1850; experiment: as above; assay type: cell-based; details: Stenotrophomonas maltophilia, read-out: minimum inhibitory concentration, MIC
Source text: as §1

[3] = tested on: Streptococcus pyogenes N.Y.5; experiment: as above; assay type: cell-based; details: read-out: minimum inhibitory concentration, MIC
Source text: as §1

[4] = tested on: Pseudomonas aeruginosa ML4561 RP4; experiment: as above; assay type: cell-based; details: ML4561RP4, read-out: minimum inhibitory concentration, MIC
Source text: as §1

[5] = tested on: Bacillus subtilis ATCC 6633; experiment: as above; assay type: cell-based; details: ATCC6633, read-out: minimum inhibitory concentration, MIC
Source text: as §1

[6] = tested on: Pseudomonas aeruginosa 1946; experiment: as above; assay type: cell-based; details: read-out: minimum inhibitory concentration, MIC
Source text: as §1

[7] = tested on: Staphylococcus aureus ATCC 6538P; experiment: as above; assay type: cell-based; details: ATCC6538P, read-out: minimum inhibitory concentration, MIC
Source text: as §1

[8] = tested on: Staphylococcus aureus MS 27; experiment: as above; assay type: cell-based; details: MS27, read-out: minimum inhibitory concentration, MIC
Source text: as §1

[9] = tested on: Klebsiella pneunonia ATCC 10031; experiment: as above; assay type: cell-based; details: ATCC10031, read-out: minimum inhibitory concentration, MIC
Source text: as §1

[10] = tested on: Pseudomonas aeruginosa IAM1095; experiment: as above; assay type: cell-based; details: read-out: minimum inhibitory concentration, MIC
Source text: as §1

Pseudomonas putida 1842 = experiment: as above; assay type: cell-based; details: read-out: minimum inhibitory concentration, MIC
Source text: as §1

[11] = tested on: Staphylococcus epidermidis sp-al-1; experiment: as above; assay type: cell-based; details: SPAL1, read-out: minimum inhibitory concentration, MIC
Source text: as §1

[12] = tested on: Enterobacter cloacae GN366; experiment: as above; assay type: cell-based; details: read-out: minimum inhibitory concentration, MIC
Source text: as §1

Escheria coli W3630 = experiment: as above; assay type: cell-based; details: read-out: minimum inhibitory concentration, MIC
Source text: as §1

[13] = tested on: Pseudomonas aeruginosa ML4561 Rms166; experiment: as above; assay type: cell-based; details: ML4561RMS166, read-out: minimum inhibitory concentration, MIC
Source text: as §1

[14] = tested on: Pseudomonas aeruginosa ML4561; experiment: as above; assay type: cell-based; details: read-out: minimum inhibitory concentration, MIC
Source text: as §1

[15] = tested on: Enterobacter aerogenes 0655; experiment: as above; assay type: cell-based; details: Klebsiella aerogenes, read-out: minimum inhibitory concentration, MIC
Source text: as §1

Proteus morganii 0239 = experiment: as above; assay type: cell-based; details: Morganella morganii, read-out: minimum inhibitory concentration, MIC
Source text: as §1

[16] = tested on: Citrobacter freundii GN346; experiment: as above; assay type: cell-based; details: read-out: minimum inhibitory concentration, MIC
Source text: as §1

Serratia marcescens = experiment: as above; assay type: cell-based; details: read-out: minimum inhibitory concentration, MIC
Source text: as §1

[17] = tested on: Salmonella enteritidis Gartner; experiment: as above; assay type: cell-based; details: Salmonella enterica, read-out: minimum inhibitory concentration, MIC
Source text: as §1

[18] = tested on: Pseudomonas aeruginosa 2512; experiment: as above; assay type: cell-based; details: read-out: minimum inhibitory concentration, MIC
Source text: as §1

[19] = tested on: Pseudomonas aeruginosa ML4561 Rms164-1; experiment: as above; assay type: cell-based; details: ML4561RMS1641, read-out: minimum inhibitory concentration, MIC
Source text: as §1

Shigella sonnei E33 = experiment: as above; assay type: cell-based; details: read-out: minimum inhibitory concentration, MIC
Source text: as §1

Proteus rettgeri ACR = experiment: as above; assay type: cell-based; details: Providencia rettgeri, read-out: minimum inhibitory concentration, MIC
Source text: as §1

[20] = tested on: Escherichia coli NIHJ-JC2; experiment: as above; assay type: cell-based; details: NIHJJC2, read-out: minimum inhibitory concentration, MIC
Source text: as §1

Solubility = assay type: physicochemical

CNC1C(O)C(OC2C(N)CC(N)C(OC3OC(CN)=CCC3NC=O)C2O)OCC1(C)O (stereo not drawn) [G-367-1]
insoluble: Solubility (Solubility; acetone) | Solubility (Solubility; benzene) | Solubility (Solubility; chloroform) | Solubility (Solubility; ethyl acetate)
soluble: Solubility (Solubility; methanol) | Solubility (Solubility; water)
3.1 µg/mL: MIC (Proteus morganii 0239) | MIC (Proteus rettgeri ACR)
1.6 µg/mL: MIC [9] | MIC [11] | MIC [12] | MIC (Escheria coli W3630) | MIC [15] | MIC [16] | MIC [17] | MIC (Shigella sonnei E33) | MIC [20]
6.3 µg/mL: MIC [3] | MIC [7] | MIC [8]
50 µg/mL: MIC [19]
12.5 µg/mL: MIC [1] | MIC [4]
0.8 µg/mL: MIC [5]
25 µg/mL: MIC [10] | MIC [14] | MIC (Serratia marcescens)
strong antibacterial effect: antibacterial effect (Gram negative bacteria)
> 100 µg/mL: MIC [2] | MIC [6] | MIC (Pseudomonas putida 1842) | MIC [13] | MIC [18]

Reference: patent US4297486A, “Aminoglycoside antibiotic G-367-1 and method for the production thereof” (Toyo Jozo Kabushiki Kaisha, priority 1979, dated 1981)
